This is an account of results in US20100113613A1, “CYCLOHEXANE POLYALCOHOL FORMULATION FOR TREATMENT OF DISORDERS OF PROTEIN AGGREGATION” (WARATAH PHARMACEUTICALS, priority 2006, published 2010).

A short description of series [1]: Competition of scyllo-inositol uptake by myo-inositol after single oral gavage (FIG. 17). The class given is in vivo. As to conditions: co-administration of 0, 50, 200 or 400 μg of myo-inositol. As to the method:
FIG. 17. A competition assay with myo-inositol to compete scyllo-inositol uptake, following a single oral gavage dose was examined. (A) Plasma 3^H-scyllo-inositol levels following co-administration of 0, 50, 200 or 400 μg of myo-inositol. Myo-inositol loading appears to alter the kinetics of oral scyllo-inositol uptake in a dose-dependent manner.

In series [2] the test system is TgCRND8 mice. The series is described as follows: TgCRND8 mice therapeutic dosing (5-6 months): synaptic density. In kind it is in vivo. As to conditions: therapeutic dosing regimen 5-6 months, p<0.001.
Another series has as its target T1, Aβ42 (Homo sapiens, UniProt P05067).
T1 construct: Levels of Aβ42 in brain homogenates were assessed by ELISA; from tissue; host or cells: brain homogenate (and plasma) of TgCRND8 transgenic mice
Kind of series: TgCRND8 mice 2 month ad libitum treatment from 5 months: brain and plasma Aβ42 ELISA. In kind it is in vivo. The conditions noted are these: 2 month treatment ad libitum 10 mg/ml from 5 months of age. For orientation: ELISA stands for enzyme-linked immunosorbent assay.

A further series deals with T2, Aβ40 (Homo sapiens, UniProt P05067).
T2 construct: associated with reduced levels of insoluble Aβ40 and Aβ42 in the brain; from tissue; host or cells: brain homogenate (and plasma) of TgCRND8 transgenic mice
Kind of series: TgCRND8 mice 2 month ad libitum treatment from 5 months: brain and plasma Aβ40 ELISA. In kind it is in vivo. The conditions noted are these: 2 month treatment ad libitum 10 mg/ml from 5 months of age.

Series [3] has as its system TgCRND8 mice.
In series [4] the test system is plaque burden. Kind of series: TgCRND8 mice therapeutic dosing (5-6 months): plaque burden. In kind it is in vivo. The conditions noted are these: TgCRND8 mice dosed 5-6 months age, 28 days, 10 mg/ml in drinking water.
Series [5] can be described thus: Orally administered tritiated-inositol uptake in plasma and brain (FIG. 16). The class given is in vivo. As to the method: FIG. 16. Bioavailability of scyllo- (solid line) and myo-inositol (dashed line) in plasma and brain, determined using orally administered tritiated-inositol uptake studies. […] Brain levels also rose rapidly and were maximal at 8 h and 32 h, respectively.

Series [6] has as its system plaque burden. The series is described as follows: TgCRND8 effective dose range (0.3-3.3 mg/kg/day, 3 to 4 months): plaque burden. The class given is in vivo. The conditions noted are these: TgCRND8 mice. As to the method: (§1) The highest possible dose level of scyllo-cyclohexanehexyl compound was administered in a CRND8 mouse model. […]8 mice were dosed for 28 days from 3 to 4 months of age, i.e. a time when the disease phenotype would be newly established. This study design was selected to enhance the efficiency of the study (dose earlier) and maximise the information obtained (dose at a time when changes are of sufficient magnitude to detect a treatment effect). […] Cognitive function and plaque burden were assessed. • Improvement of cognitive function: Animals were assessed using the Morris Water Maze at 4 months (FIG. 11). […] This path length was similar to that observed in previous experiments in mice dosed with the compound in drinking water ad libitum. […] Thus a clear dose response was observed.

For series [7], the system named is naturally-expressed oligomers of Aβ. The series is described as follows: In vitro effect on naturally-expressed Aβ oligomers. As to conditions: naturally-expressed oligomers at 1-2 nM; 5 μM = 0.9 μg/mL.
The next series has as its system long term potentiation. Kind of series: Long term potentiation experiments with amyloid oligomer. As to conditions: amyloid oligomer concentration 1-2 nM. The protocol:
More complex systems provide support for 5 μM (0.9 μg/mL) as an effective local concentration of the scyllo-cyclohexanehexyl. […] The effectiveness of this concentration was confirmed in acute cognitive dysfunction study in rats.

The subject of series [8] is TgCRND8 mice. The series is described as follows: TgCRND8 effective dose range (0.3-3.3 mg/kg/day, 3 to 4 months): Morris Water Maze. In kind it is in vivo. As to conditions: for effect on cognitive dysfunction and plaque burden: oral gavage twice daily. The protocol: as §1
Series [9] is described as follows: Brain and CSF levels of inositols after one month ad libitum dosing (GC/MS), Example 2. The class given is in vivo, TgCRND8 mice. The conditions noted are these: mouse, in vivo. As to the method: Study drugs were administered either at 30 mg/kg by oral gavage, or ad libitum by dissolution in drinking water. For administration in drinking water, study drugs were dissolved at 10 mg/ml. The average amount of water taken from the bottle was 3 ml daily per animal. The average mouse weight was 33 g. […] Quantification of scyllo-cyclohexanehexyl and myo-inositol. Scyllo-cyclohexanehexyl and myo-cyclohexanehexyl levels in the brain and CSF were analyzed using gas chromatography/mass spectrometry. D-chiro-inositol was used as an internal control, as it is not present in these biological samples. Derivatization: To increase the volatility and thermal stability of these compounds and to allow for proper peak separation, these samples need to first be derivatized. The derivatization was adapted from a method presented previously (Shetty, H U, et al, 1995, Anal. Biochem. 224:279-85), where the hydroxyl groups of the cyclohexanehexyl were replaced with acetyl groups. […] Similarly, a 5-15 μl sample of CSF was mixed with 1 ml of methanol and allowed to stand at room temperature for 5 minutes. The resulting suspension was centrifuged (5 min, 5000×g) and the supernatant transferred to a glass tube (Teflon-lined cap). […] These samples were then evaporated to complete dryness (Speedvac; 60° C.). […] This mixture was flushed with dry nitrogen, securely capped and the tubes heated (80° C.; 30 min). Following derivatization, samples were cooled (RT) and the unreacted acetylating reagent evaporated using a steady stream of nitrogen gas. The derivatized products were re-dissolved (4 ml; hexane-ethyl acetate (80:20, v/v)) and washed with 1 ml of 5% sodium hydrogencarbonate solution. […] The residue was reconstituted in 100 μl; ethyl acetate. 1 μL of this was injected into the GC/MS system. A similar procedure was followed using stock concentrations of scyllo- and myo-cyclohexanehexols, which were then used to generate concentration curves (in this case the internal standard was derivatized separately and then added). GC/MS was performed using a Perkin Elmer TurboMass Autosystem XL, with a quadrupole mass spectrometer and electron ionization. Gas chromatography was performed using a 30 m×0.25 mm×0.25 μm ZB 5 (5% diphenyl/95% dimethylpolysiloxane) column, using the carrier gas Helium (1 ml/min). Samples were injected with the split set to 50 at 1 min and 0 at 5 min, the injector temperature was set at 300° C. and an initial oven temperature of 80° C. After a hold of 1 min, the temperature was ramped at 45° C./min to 187° C. and held there for 15 min. […] Sample peaks were analyzed using selected-ion monitoring, using m/z 168 for determining cyclohexanehexyl levels in the brain and CSF and m/z 373 for determining cyclohexanehexyl levels in plasma, as monitoring the larger ion reduced noise. […]

Marks after values point to notes of the source that are not given here.

T1 sequence (P05067 672-713): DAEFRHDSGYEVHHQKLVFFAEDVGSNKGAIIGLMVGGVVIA
T2 sequence (P05067 672-711): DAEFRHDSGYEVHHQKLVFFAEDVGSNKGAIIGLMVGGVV
naturally-expressed oligomers of Aβ, sequence (P05067 672-711 limits assumed): as the sequence (P05067 672-711) above

For the molecule `OC1C(O)C(O)C(O)C(O)C1O` (centres unmarked) [AZD-103, scyllo-inositol], in [1], the “brain levels of scyllo-inositol at 4 h following myo-inositol administration” value was “not significantly changed”. Also, the synaptic density result in the series on TgCRND8 mice [2] is given as “increased synaptic density”. Besides, the “Plasma Aβ levels Aβ42” value at Aβ42 is 3035 ± 236 pg/mL. For the same molecule, the “Plasma Aβ levels Aβ40” value on Aβ40 turned out to be 4507 ± 207 pg/mL. Moreover, the “twice-daily oral gavage vs one daily dose at equivalent doses, reversing cognitive deficits” value in the series with TgCRND8 mice [3] (TgCRND8 mice, dose finding studies) is reported as “more effective than one daily dose”. In addition, the “adverse effects in the mice” value in the series on TgCRND8 mice [3] (mouse, in vivo) was “no evidence of adverse effects”. For the same molecule, in the series with plaque burden [4], the “Mean Plaque Size” value was 336 ± 6* μm^2 and the “Total Plaque Area” value is listed as 420027 ± 14986* μm^2. In [5], the “time of maximal brain levels” value was found to be 32 h and the “time of peak plasma levels post administration” value is 12 h.

Consider scyllo-inositol [AZD-103], for which the “plaque parameters (plaque count and brain plaque area)” value was “indistinguishable from untreated controls” in the series with plaque burden [6] (0.3 mg/kg/day, 28 days from 3 to 4 months); “significantly reduced” with plaque burden [6] (1 mg/kg/day, plaque count p=0.02, plaque area p=0.011); “greatest reduction in plaque burden” with plaque burden [6] (3.3 mg/kg/day, plaque count p<0.0001, plaque area p<0.001). Also, the “concentration showing greater consistency of effect” value in [7] was 5 µM. In addition, in the series on long term potentiation, the “lowest maximally-effective dose level” value is 5 µM. In the series with TgCRND8 mice [8] (TgCRND8 mice, 0.3 mg/kg/day, 28 days from 3 to 4 months), the “swim path length vs untreated controls” value is on record as “indistinguishable from untreated controls”. The “effect on cognitive dysfunction and plaque burden” value with TgCRND8 mice [8] (TgCRND8 mice, 0.3 mg/kg/day, compared to untreated animals) is “no observed effect”; in the series on TgCRND8 mice [8] (TgCRND8 mice, 1.0 mg/kg/day), “partial effectiveness”; in the series with TgCRND8 mice [8] (TgCRND8 mice, 3.3 mg/kg/day) it was “significant alleviation of cognitive dysfunction and reduction in plaque burden”. In addition, in the series on TgCRND8 mice [8] (TgCRND8 mice, 3.3 mg/kg/day, 28 days from 3 to 4 months, p=0.04), the “swim path length on day 5 of training vs untreated animals” value is “significantly shorter swim path length”. Moreover, the “dose providing efficacy in terms of behaviour and Aβ accumulation” value in the series on TgCRND8 mice [8] (young CRND8 mice dosed 12-16 weeks of age, oral) came out at 3.3 mg/kg/day. Besides, in series [9], the “increase of scyllo-cyclohexanehexyl level in CSF vs untreated” value came out at 10 fold. In series [9], the “increase of scyllo-cyclohexanehexyl level in brain vs untreated” value is 7 fold.
